The values that follow come from patent US11492327B2, “Aminooxylipids for the construction of self-assembling liposomal systems enabling their subsequent modification by biologically functional molecules” (VYSOKA SKOLA CHEMICKO-TECHNOLOGICKA V PRAZE, priority 2016, dated 2022).

In one data set the test system is T-lymphocytes. Description: Cytotoxicity of liposomes: apoptotic cells detected with Annexin V by flow cytometry. The data set is classed as cell-based. The following applies: aminooxylipid incorporated into liposomal bilayer. On the procedure:
(§1) Methods: The cytotoxicity of liposomes prepared as described in Example 15 is determined by comparing the cytotoxicity of EPC liposomes and EPC liposomes with an incorporated aminooxylipid of general formula I (according to Example 12, 13 or 14) in in vitro experiments with T-lymphocytes and on H1299 cells of lung carcinoma cell line.
(§2) Measurements were performed on a flow cytometer Fortessa (Becton Dickinson). Apoptotic cells were detected and quantified using the fluorescent dye Annexin V (Invitrogen).
(§3) In all experiments, 500 μl media per well were used and lipid content was 100 μg per 1 ml of the medium. Unmodified liposomes and liposomes modified post-liposomally with hyaluronic acid were incubated. In Experiment 1, H1299 cells of lung carcinoma were incubated for 30 minutes at 4° C. In Experiment 2, T-lymphocytes were used and incubated at room temperature in a rotator. In Experiments 3 and 4, H1299 cells of lung carcinoma cell line were used and incubated for 2 hours in a CO2 incubator (37° C., 5% CO2). In Experiment 5, H1299 cells of lung carcinoma were used. These cells were incubated for 30 minutes at 4° C. in a refrigerator.
In general terms: A flow cytometer gives signals particle by particle.

The test system of data set [1] is H1299 cells of lung carcinoma cell line. Described as above. The data set is classed as cell-based. The following applies: aminooxylipid incorporated into liposomal bilayer. The procedure:
as §1, §2, §3

Data set [2] is described as follows: Size, PDI and zeta-potential of liposomes by DLS (Nanosizer ZS). The following applies: for Effect of incorporation into liposomes on the final distribution of liposomes: 99% EPC, 1% aminooxylipid; for Zeta potential: liposomes containing 1% aminooxylipid in PBS solution with neutral pH. Type of data set: physicochemical. On the procedure:
Methods: Liposomes with incorporated aminooxylipids were prepared by phospholipid film hydration. All lipids were dissolved in chloroform at a concentration of 10 mg of lipid/1 ml chloroform at a molar ratio of 99% EPC to 1% aminooxylipids of general formula I (according to Examples 12, 13 and 14). The chloroform solution was evaporated in a globular flask on a rotary evaporator; pressure: 100 hPa, water bath temperature: 37° C., 90 revolutions/minute). The resulting lipid film was hydrated with PBS (pH 7.2, 0.14M NaCl, 20 mM Na-phosphate) to a final concentration of 10 mg/ml. The liposomes were then extruded through Nucleopore polycarbonate filters with 400 and 100 nm pore size. The size and zeta-potential were measured using a Nanosizer ZS (Malvern, UK) in a DTS cell, Attenuator value 4, 25° C. […] Example with a lipid of general formula I (according to Example 12): EPC liposomes: size 82 nm, PDI 0.11; EPC+ aminooxylipid 1%: size 81 nm, PDI 0.1.
DLS measurements were carried out under the same conditions as in Example 15.
Methods: The liposomes prepared as described in Example 15, containing 1% aminooxylipidid of general formula I (according to Example 14) at a starting concentration of 10 mg/ml PBS were mixed with a mannan solution in PBS in a ratio of 1 mg total lipid to 0.1 mg mannan. The reaction was carried out at room temperature. Low molecular weight components and unbound mannan were removed by gel chromatography on a Superose 6 column. The mannan binding onto the liposomal surface was confirmed by: a) scanning and transmission electron microscopy; b) the change in liposome size was determined by the DLS technique (Zetasizer ZS, Malvern UK). The polysaccharide mannan was isolated from the yeast Candida albicans. The size of the molecules of mannan and liposomes was measured by DLS. […] Dendritic cells were prepared by culture from peripheral blood of healthy donors. Their stimulating activity was compared with lipopolysaccharide activity (LPS, standard Salmonella minnesota).

A short description of data set [3]: HA binding onto liposomes presenting the aminooxy group vs. the amino group (gel chromatography, fluorimetry). As to conditions: incubated in 10 mM citric acid; lipid incorporated in liposomes. The procedure: Methods: Liposomes presenting the aminooxy group were prepared by the procedure described in Example 15, containing 1% aminooxylipidid of general formula I (according to Example 14) at a starting concentration of 10 mg/ml PBS. The amino group-presenting liposomes were prepared by the same technique with the amino group-containing lipid DOPE. These liposomes at a starting concentration of 10 mg/ml PBS were mixed with fluorescently labelled HA (Sigma-Aldrich) at a concentration of 1 mg/ml PBS in a ratio of 1 mg total lipid to 0.1 mg HA. Incubation takes place for at least 30 minutes at room temperature (see Example 19). Both samples were incubated in 10 mM citric acid. Unbound HA was removed on a Superose 6 column (200 μl spraying buffer, flow rate of the first milliliter was 0.1 ml/min, then 0.3 ml/min, collection of 1 ml fractions). Fluorescence was measured using a Perkin Elmer fluorimeter at appropriate wavelengths (excitation for FITC-HA was 490 nm, emission 505 nm).

Molecules are shown by their SMILES.

Turning to `CCCCCCCCCCCCCCC(CCCCCCCCCCCCCC)C(=O)NCCNC(=O)CON.O=C(O)C(F)(F)F` [Example 12, N^1-(2-tetradecylhexadecanoyl)-N^2-amoniumoxyacetyl-1,2-diaminoethane-trifluoroacetate], the “Cytotoxicity of EPC liposomes with incorporated aminooxylipid vs. EPC liposomes” value (in the data set on T-lymphocytes; in data set [1]) was “does not result in an increase in their cytotoxicity” each time. In data set [2] (Example 15), the “Effect of incorporation into liposomes on the final distribution of liposomes” value (“Effect of incorporation into liposomes” below) was “no significant effect”. The same compound gave a PDI in data set [2] (Example 15, EPC liposomes without or with 1% aminooxylipid, PBS) of 0.1. For the same compound, in data set [2] (Example 15, EPC liposomes without or with 1% aminooxylipid, PBS, extruded 400 and 100 nm), the size is 81 nm. In addition, the Zeta potential result in data set [2] is recorded as “around 0 mV”.
For the compound `CCCCCCCC/C=C\CCCCCCCC(=O)OC[C@H](COP(=O)(O)OCCN)OC(=O)CCCCCCC/C=C\CCCCCCCC` [DOPE, 1,2-dioleoyl-sn-glycero-3-phosphoethanolamine, reference compound], the “HA remaining bound after acidification, % of the original HA” value in data set [3] came out at 20%.
Turning to `CCCCCCCCCCCCCCC(CCCCCCCCCCCCCC)C(=O)NCCCNC(=O)CON.O=C(O)C(F)(F)F` [Example 13, N^1-(2-tetradecylhexadecanoyl)-N^3-amoniumoxyacetyl-1,3-diaminopropane-trifluoracetate], the “Cytotoxicity of EPC liposomes with incorporated aminooxylipid vs. EPC liposomes” value (in the data set with T-lymphocytes; in data set [1]) was “does not result in an increase in their cytotoxicity” throughout. The “Effect of incorporation into liposomes” value in data set [2] (Example 15) is listed as “no significant effect”. The Zeta potential result in data set [2] is listed as “around 0 mV”.
For the compound `CCCCCCCCCCCCCCC(CCCCCCCCCCCCCC)C(=O)NCOC(CCOCC)NC(=O)CON.O=C(O)C(F)(F)F` (centres unmarked) [Example 14, N^1-(2-tetradecylhexadecanoyl)-N^3-amoniumoxyacetyl-1,3-diamino-2,6-dioxaoctane-trifluoracetate], the “HA remaining bound after acidification, % of the original HA” value in data set [3] is reported as “did not change due to acidification”. Moreover, the “Cytotoxicity of EPC liposomes with incorporated aminooxylipid vs. EPC liposomes” value (in the data set with T-lymphocytes; in data set [1]) was “does not result in an increase in their cytotoxicity” each time. The “Effect of incorporation into liposomes” value in data set [2] (Example 15) is “no significant effect”. Moreover, in data set [2] (Example 20, FIG. 3, liposomes with 1% aminooxylipid, alone or coupled with IgY), the “size (size distribution, particle numbers)” value is given as 107 nm. Besides, the Zeta potential result in data set [2] was “around 0 mV”.
